The target in one data set is T1, CK2A1 (Homo sapiens, UniProt P68400).
T1 construct: purchased Eurofins
The experiment in a line: Radiometric kinase assay (Eurofins), CK2A1. The class given is biochemical. As to conditions: read-out: CK2A1 RAD IC50. The source says: FIGS. 4A-4F characterize flavones for in vitro and in-cell CK2 inhibition. […] Representative of two independent experiments. […] Nonlinear fit was used to calculate IC50. […] Nonlinear fit was used to calculate IC50. […] Nonlinear fit was used to calculate IC50. […] Normalized to DMSO, data are representative of three independent experiments.
(§1) • ^1Radiometric kinase assay from Eurofins. Performed in astrocytes with a Promega Lumit IL-6 kit.

In the next data set the target is T2, CK2A2 (Homo sapiens, UniProt P19784).
T2 construct: purchased Eurofins
The experiment in a line: Radiometric kinase assay (Eurofins), CK2A2. The class given is biochemical. The settings on record: read-out: CK2A2 RAD IC50.
From the text: as §1

The test system of a further data set is IL-6 secretion. The experiment in a line: IL-6 secretion assay in astrocytes (Promega Lumit IL-6 kit). It counts as cell-based, human. The settings on record: Homo sapiens, Astrocyte, read-out: IL6-Inhib. As to the method:
IL-6 secretion assay. HCAs were plated at 20,000 cells per well in white clear bottom 96-well plates. Two to three days later, media was removed and replaced with media containing 10 ng/mL IL1B and compound dilution series. Five hours later, plates were processed using the Lumit IL-6 Assay Kit (Promega W6030) according to the manufacturer's instructions.
• ^1Radiometric kinase assay from Eurofins. Performed in astrocytes with a Promega Lumit IL-6 kit. A series of halogenated flavones was generated and assayed (Table 3).

A further data set can be described thus: Aqueous solubility. It counts as physicochemical. As to conditions: read-out: Aqueous Solubility.
Setting [1] is: aqueous medium (not further specified), Table 8.
The mark [2] stands for this setting: aqueous (not further specified), Table 3.

pIC50: −log10 of the molar value. Converted amounts (≈) assume the structure as drawn. Where two headings read alike, the source gives them in different places.

T2 sequence (P19784 whole entry): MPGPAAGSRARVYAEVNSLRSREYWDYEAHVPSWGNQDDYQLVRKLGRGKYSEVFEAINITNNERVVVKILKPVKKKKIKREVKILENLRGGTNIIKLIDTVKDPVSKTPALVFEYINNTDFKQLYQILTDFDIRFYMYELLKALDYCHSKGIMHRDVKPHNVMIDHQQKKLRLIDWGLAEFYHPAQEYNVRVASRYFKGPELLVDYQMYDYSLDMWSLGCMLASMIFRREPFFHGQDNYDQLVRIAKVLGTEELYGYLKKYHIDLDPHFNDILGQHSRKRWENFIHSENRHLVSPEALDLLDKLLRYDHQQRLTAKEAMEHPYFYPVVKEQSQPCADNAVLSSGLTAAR
T1 sequence (P68400 whole entry): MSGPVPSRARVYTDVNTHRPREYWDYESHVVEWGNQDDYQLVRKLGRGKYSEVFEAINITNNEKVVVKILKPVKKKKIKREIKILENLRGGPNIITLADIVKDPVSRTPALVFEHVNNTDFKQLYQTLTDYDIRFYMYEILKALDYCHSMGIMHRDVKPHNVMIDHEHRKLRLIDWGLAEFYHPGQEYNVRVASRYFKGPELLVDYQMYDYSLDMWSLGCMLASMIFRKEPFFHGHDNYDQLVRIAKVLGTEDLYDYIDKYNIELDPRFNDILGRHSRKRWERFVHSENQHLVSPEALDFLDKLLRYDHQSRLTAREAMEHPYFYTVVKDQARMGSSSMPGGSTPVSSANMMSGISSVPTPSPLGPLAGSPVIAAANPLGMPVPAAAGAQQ

Take `O=C1/C(=C/c2cc(Cl)c(O)c(Cl)c2)Oc2c(Br)cc(Br)cc21` [JKT.822A]: the pIC50 on CK2A1 (Table 11, aurones) is 5.70; at CK2A2 (Table 11, aurones) it was 6.09; with IL-6 secretion (Table 11), 5.70. For the same compound, the solubility (commonly how much of the substance goes into solution per volume) in the data set “Aqueous solubility” (Table 11) is < 0.01 µM.
Turning to `COc1nc(-c2cc(=O)c3cc(Cl)cc(Br)c3o2)ccc1O` [JKT.669A], the pIC50 at CK2A1 (Table 2) is 8.15; on CK2A2 (Table 2), 8.30; with IL-6 secretion (Table 2, astrocytes) it was 5.54.
Turning to `COc1nc(-c2ccc(O)c(Br)c2)nc2c(Br)cc(Br)cc12` [JKT.842A], the pIC50 was 6.00 at CK2A1 (Table 8, quinazolinones); 5.95 at CK2A2 (Table 8, quinazolinones); < 5.00 in the data set with IL-6 secretion (Table 8). For the same compound, the solubility in “Aqueous solubility” (setting [1]) is < 0.01 µM.
For `O=c1cc(-c2ccc(O)c(Cl)n2)oc2c(Br)cc(Br)cc12` [JKT.801A], the pIC50 at CK2A1 (Table 4) is 7.62; on CK2A2 (Table 4), 7.68; in the data set with IL-6 secretion (Table 4), 5.36. For the same compound, in “Aqueous solubility” (Table 4), the solubility is 155 µM (≈ 66.8 µg/mL).
With `COc1ccc2c(c1Br)O/C(=C\c1ccc(C(=O)O)cc1)C2=O` [JKT.821A], the pIC50 at CK2A1 (Table 11, aurones) was 5.81; on CK2A2 (Table 11, aurones) it was 6.69; with IL-6 secretion (Table 11), < 5.00. Besides, in “Aqueous solubility” (Table 11), the solubility stood at 196 µM (≈ 73.4 µg/mL).
The like results for `O=C1/C(=C/c2ccc(O)cc2Cl)Oc2c(Br)cc(Br)cc21` [JKT.727A] were, in that order, < 5.30, < 5.30, 5.33 and 73.7 µM (≈ 31.7 µg/mL).
For `COc1ccc2c(c1Br)O/C(=C\c1ccc(O)c(I)c1)C2=O` [JKT.814A], in that order: 6.88, 6.91, 5.37 and < 0.01 µM.
On to `O=C1/C(=C/c2ccc(O)cc2Br)Oc2c(Br)cc(Br)cc21` [JKT.758A], for which the pIC50 is < 5.30 at CK2A1 (Table 11, aurones); < 5.30 at CK2A2 (Table 11, aurones); 5.52 in the data set with IL-6 secretion (Table 11). The solubility in “Aqueous solubility” (Table 11) was 2.7 µM (≈ 1.28 µg/mL).
Take `Cc1cc(-c2cc(=O)c3cc(Br)cc(Br)c3o2)ccc1O` [JKT.475A]: the pIC50 on CK2A1 (Table 2) was < 5.30; on CK2A2 (Table 2), 5.69; in the data set on IL-6 secretion (Table 2, astrocytes) it was < 5.00.
Turning to `COc1c(Br)cc2c(c1Br)O/C(=C\c1ccc(O)c(Br)c1)C2=O` [JKT.759A], the pIC50 at CK2A1 (Table 11, aurones) is 7.24; on CK2A2 (Table 11, aurones), 7.36; with IL-6 secretion (Table 11) it was 5.64. The solubility in the data set “Aqueous solubility” (Table 11) worked out at 3.6 µM (≈ 1.82 µg/mL).
With `COc1c(Br)cc2c(c1Br)O/C(=C\c1ccc(O)c(Cl)c1)C2=O` [JKT.761A], the pIC50 on CK2A1 (Table 11, aurones) was 7.17; at CK2A2 (Table 11, aurones) it was 7.32; in the data set with IL-6 secretion (Table 11), 5.60. In addition, in “Aqueous solubility” (Table 11), the solubility stood at 120 µM (≈ 55.2 µg/mL).
For `COc1c(Br)cc2c(c1Br)O/C(=C\c1ccc(O)c(C(F)(F)F)c1)C2=O` [JKT.763A], in that order: 6.22, 6.20, 5.57 and 7.9 µM (≈ 3.9 µg/mL).
With `O=c1[nH]c(-c2cc(Cl)c(O)c(Cl)c2)nc2c(Br)cccc12` [JKT.829A], the pIC50 at CK2A1 (Table 8, quinazolinones) is 6.13; on CK2A2 (Table 8, quinazolinones), 6.18; in the data set on IL-6 secretion (Table 8), < 5.00. In addition, the solubility in the data set “Aqueous solubility” (setting [1]) came to 193 µM (≈ 74.6 µg/mL).
On to `COc1cc(-c2cc(=O)c3cc(Br)cc(Br)c3[nH]2)ccc1O` [JKT.736A], for which the pIC50 on CK2A1 (Table 6, quinolinones) is 7.66; on CK2A2 (Table 6, quinolinones), 7.82; with IL-6 secretion (Table 6), 5.41. For the same compound, the solubility in “Aqueous solubility” (Table 6) was 10 µM (≈ 4.25 µg/mL).
As to `COc1c(Br)cc2c(c1Br)O/C(=C\c1ccc(C(=O)O)cc1)C2=O` [JKT.765A], the pIC50 was 5.61 on CK2A1 (Table 11, aurones); 6.70 at CK2A2 (Table 11, aurones); 4.82 in the data set on IL-6 secretion (Table 11). For the same compound, in the data set “Aqueous solubility” (Table 11), the solubility is > 200 µM.
With `O=c1cc(-c2ccc(O)c(Cl)c2)oc2c(Br)cc(Cl)cc12` [JKT.722A], the pIC50 is 8.00 at CK2A1 (Table 3, halogenated flavones); 8.15 at CK2A2 (Table 3, halogenated flavones); 5.66 in the data set on IL-6 secretion (Table 3). Besides, the solubility in the data set “Aqueous solubility” (setting [2]) was determined as 27.5 µM (≈ 10.6 µg/mL).
For `O=c1cc(-c2ccc(O)c(Cl)c2)oc2c(Br)cc(Br)cc12` [JKT.721A], the pIC50 at CK2A1 (Table 3, halogenated flavones) is 8.00; on CK2A2 (Table 3, halogenated flavones), 8.30; with IL-6 secretion (Table 3), 5.59. For the same compound, the solubility in “Aqueous solubility” (setting [2]) came out at 19.6 µM (≈ 8.44 µg/mL).
With `O=c1[nH]c(-c2cc(Cl)c(O)c(Cl)c2)nc2c(Cl)cc(Cl)cc12` [JKT.807A], the pIC50 at CK2A1 (Table 8, quinazolinones) was 6.04; on CK2A2 (Table 8, quinazolinones) it was < 5.30; in the data set on IL-6 secretion (Table 8), < 5.00. Moreover, in the data set “Aqueous solubility” (setting [1]), the solubility is 126 µM (≈ 47.3 µg/mL).

For the origin of these results see patent publication US20260199350A1, “FLAVONES, QUINOLINONES, QUINAZOLINONES, AND AURONES, AND USES IN CK2-MEDIATED DISEASES” (Salk Institute for Biological Studies, priority 2022, published 2026).
